The source of these data is BindingDB's records for PubMed 9694916 (Smithkline Beecham Pharmaceuticals, 1998).

SMILES strings stand for the structures.

What is called Ki is a dissociation constant, usually derived from enzyme kinetics or from competition with a known ligand. A higher Ki goes with weaker binding.

Test [1] concerns the target T1, Endothelin receptor type B (Homo sapiens, UniProt P24530).
T1 sequence (P24530 whole entry): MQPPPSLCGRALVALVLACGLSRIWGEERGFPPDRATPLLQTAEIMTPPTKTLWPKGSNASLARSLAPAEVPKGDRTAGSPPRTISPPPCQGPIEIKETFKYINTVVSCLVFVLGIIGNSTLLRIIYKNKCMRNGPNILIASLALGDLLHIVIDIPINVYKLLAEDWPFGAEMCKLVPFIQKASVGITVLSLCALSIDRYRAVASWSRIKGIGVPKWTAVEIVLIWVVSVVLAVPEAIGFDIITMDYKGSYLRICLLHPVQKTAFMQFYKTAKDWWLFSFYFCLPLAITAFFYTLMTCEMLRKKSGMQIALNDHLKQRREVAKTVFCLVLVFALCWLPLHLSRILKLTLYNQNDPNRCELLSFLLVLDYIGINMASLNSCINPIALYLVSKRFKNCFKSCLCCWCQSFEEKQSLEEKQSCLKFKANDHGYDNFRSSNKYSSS

Another test concerns the target T2, Endothelin-1 receptor (Homo sapiens, UniProt P25101).
T2 sequence (P25101 whole entry): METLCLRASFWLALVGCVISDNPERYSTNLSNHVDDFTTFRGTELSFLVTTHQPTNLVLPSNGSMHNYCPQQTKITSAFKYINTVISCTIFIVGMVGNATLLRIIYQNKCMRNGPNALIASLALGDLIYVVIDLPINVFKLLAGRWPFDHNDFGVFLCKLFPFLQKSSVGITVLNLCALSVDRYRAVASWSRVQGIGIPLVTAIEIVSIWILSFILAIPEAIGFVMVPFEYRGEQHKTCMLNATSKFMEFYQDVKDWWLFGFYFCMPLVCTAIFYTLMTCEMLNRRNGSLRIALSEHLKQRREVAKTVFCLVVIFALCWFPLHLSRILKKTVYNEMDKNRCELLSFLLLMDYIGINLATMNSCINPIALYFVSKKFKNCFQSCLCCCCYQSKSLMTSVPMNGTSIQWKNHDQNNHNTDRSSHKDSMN

Regarding `CCCOc1ccc2c(c1)[C@@H](c1ccc(OC)cc1OCC(=O)O)[C@H](C(=O)O)[C@H]2c1ccc2c(c1)OCO2` [(1S,2R,3S)-1-Benzo[1,3]dioxol-5-yl-3-(2-carboxymethoxy-4-methoxy-phenyl)-5-propoxy-indan-2-carboxylic acid], the Ki in test [1] was found to be 0.021 µM; at Endothelin-1 receptor it was 0.0004 µM.

For `CCCOc1ccc2c(c1)[C@@H](c1ccc(OC)cc1OCCO)[C@H](C(=O)O)[C@H]2c1ccc2c(c1)OCO2` [Enrasentan], the Ki in test [1] stood at 0.15 µM; on Endothelin-1 receptor, 0.0015 µM.

In the case of `CCCCn1ncc(/C=C(\Cc2cc3c(cc2OC)OCO3)C(=O)O)c1-c1ccc(OC)cc1OCc1ccccc1C(=O)O` [SB-234551], the Ki in test [1] was found to be 0.5 µM; on Endothelin-1 receptor, 0.00013 µM.
